Holding throughout (test): competitive isoTOP-ABPP
Holding throughout (assay type): binding

In assay [1] the target is T1, NT5DC1 5-nucleotidase domain-containing protein 1 (Homo sapiens, UniProt Q5TFE4).
T1 construct: isoTOP-ABPP experiments performed in cell lysates (in vitro); endogenous in cells; host or cells: soluble proteome of human cancer cell lines (MDA-MB-231; Ramos and Jurkat also prepared)
T1 sequence (Q5TFE4 1-455): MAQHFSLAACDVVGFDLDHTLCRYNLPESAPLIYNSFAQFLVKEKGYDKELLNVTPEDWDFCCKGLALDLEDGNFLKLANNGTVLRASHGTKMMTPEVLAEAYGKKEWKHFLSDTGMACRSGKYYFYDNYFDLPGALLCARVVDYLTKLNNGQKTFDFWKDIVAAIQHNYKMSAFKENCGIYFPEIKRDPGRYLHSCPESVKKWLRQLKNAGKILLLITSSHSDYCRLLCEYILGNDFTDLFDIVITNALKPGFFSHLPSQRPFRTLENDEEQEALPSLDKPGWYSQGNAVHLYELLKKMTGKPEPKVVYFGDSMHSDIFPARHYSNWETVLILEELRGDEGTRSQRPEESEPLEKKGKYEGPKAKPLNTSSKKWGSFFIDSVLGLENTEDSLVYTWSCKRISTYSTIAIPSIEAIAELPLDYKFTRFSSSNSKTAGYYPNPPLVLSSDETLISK
To be noted: 50 uM, 231 sol, in vitro; for R value (DMSO/fragment) for probe 1 labeling: Q5TFE4_K123. The essentials:
(§1)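 Cell lysate treated in vitro with fragments (50 μM activated esters, 100 μM guanidinylating agents) or DMSO, labelled 1 h at ambient temperature with 0.1 mM STP-alkyne, CuAAC-tagged with light/heavy TEV tags, analysed by MS. R = DMSO/compound MS1 peak-area ratio; lysines with R≥4 called liganded.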

In assay [2] the target is T2, NUDT22 Nucleoside diphosphate-linked moiety X motif 22 (Homo sapiens, UniProt Q9BRQ3).
T2 construct: isoTOP-ABPP experiments performed in cell lysates (in vitro); endogenous in cells; host or cells: soluble proteome of human cancer cell lines (MDA-MB-231; Ramos and Jurkat also prepared)
T2 sequence (Q9BRQ3 1-303): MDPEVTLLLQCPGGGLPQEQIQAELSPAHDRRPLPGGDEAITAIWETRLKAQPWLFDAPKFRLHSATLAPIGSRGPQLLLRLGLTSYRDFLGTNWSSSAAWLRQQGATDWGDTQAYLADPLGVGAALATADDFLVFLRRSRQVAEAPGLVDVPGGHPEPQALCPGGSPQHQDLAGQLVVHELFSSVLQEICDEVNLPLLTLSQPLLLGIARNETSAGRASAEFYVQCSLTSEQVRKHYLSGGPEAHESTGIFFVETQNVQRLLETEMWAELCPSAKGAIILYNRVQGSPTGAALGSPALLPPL
Conditions: 50 uM, 231 sol, in vitro; for R value (DMSO/fragment) for probe 1 labeling: Q9BRQ3_K60. The essentials: as §1

Assay [3] concerns the target T3, DNMT1 DNA (cytosine-5)-methyltransferase 1 (Homo sapiens, UniProt P26358).
T3 construct: isoTOP-ABPP experiments performed in cell lysates (in vitro); endogenous in cells; host or cells: soluble proteome of human cancer cell lines (MDA-MB-231; Ramos and Jurkat also prepared)
Conditions: 50 uM, 231 sol, in vitro; for R value (DMSO/fragment) for probe 1 labeling: P26358_K45. The essentials:
as §1

For assay [4], the target named is T4, ARL6IP1 ADP-ribosylation factor-like protein 6-interacting (Homo sapiens, UniProt Q15041).
T4 construct: isoTOP-ABPP experiments performed in cell lysates (in vitro); endogenous in cells; host or cells: soluble proteome of human cancer cell lines (MDA-MB-231; Ramos and Jurkat also prepared)
T4 sequence (Q15041 whole entry): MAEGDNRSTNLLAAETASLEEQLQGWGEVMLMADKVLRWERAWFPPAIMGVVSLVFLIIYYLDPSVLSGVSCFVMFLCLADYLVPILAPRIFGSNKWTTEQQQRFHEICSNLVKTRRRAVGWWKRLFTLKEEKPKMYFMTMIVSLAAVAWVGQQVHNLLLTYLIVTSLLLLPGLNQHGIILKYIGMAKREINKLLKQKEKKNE
To be noted: 50 uM, 231 sol, in vitro; for R value (DMSO/fragment) for probe 1 labeling: Q15041_K188. The essentials:
as §1

In assay [5] the target is T5, CDK2 Cyclin-dependent kinase 2 (Homo sapiens, UniProt P24941).
T5 construct: isoTOP-ABPP experiments performed in cell lysates (in vitro); endogenous in cells; host or cells: soluble proteome of human cancer cell lines (MDA-MB-231; Ramos and Jurkat also prepared)
To be noted: 50 uM, 231 sol, in vitro; for R value (DMSO/fragment) for probe 1 labeling: P24941_K33. The essentials: as §1

For assay [6], the target named is T6, SLC25A5 ADP/ATP translocase 2 (Homo sapiens, UniProt P05141).
T6 construct: isoTOP-ABPP experiments performed in cell lysates (in vitro); endogenous in cells; host or cells: MDA-MB-231 soluble lysate
T6 sequence (P05141 1-298): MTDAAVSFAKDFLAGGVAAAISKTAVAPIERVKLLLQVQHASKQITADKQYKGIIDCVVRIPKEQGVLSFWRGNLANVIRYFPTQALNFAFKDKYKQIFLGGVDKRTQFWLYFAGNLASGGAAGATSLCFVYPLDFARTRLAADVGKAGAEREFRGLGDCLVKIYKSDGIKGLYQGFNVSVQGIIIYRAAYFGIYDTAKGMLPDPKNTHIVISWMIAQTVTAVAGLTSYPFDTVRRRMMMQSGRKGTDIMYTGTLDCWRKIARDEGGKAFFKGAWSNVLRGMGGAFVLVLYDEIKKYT
Conditions: 50 uM, 231 sol, in vitro. The essentials:
as §1

T3 sequence (P26358 whole entry): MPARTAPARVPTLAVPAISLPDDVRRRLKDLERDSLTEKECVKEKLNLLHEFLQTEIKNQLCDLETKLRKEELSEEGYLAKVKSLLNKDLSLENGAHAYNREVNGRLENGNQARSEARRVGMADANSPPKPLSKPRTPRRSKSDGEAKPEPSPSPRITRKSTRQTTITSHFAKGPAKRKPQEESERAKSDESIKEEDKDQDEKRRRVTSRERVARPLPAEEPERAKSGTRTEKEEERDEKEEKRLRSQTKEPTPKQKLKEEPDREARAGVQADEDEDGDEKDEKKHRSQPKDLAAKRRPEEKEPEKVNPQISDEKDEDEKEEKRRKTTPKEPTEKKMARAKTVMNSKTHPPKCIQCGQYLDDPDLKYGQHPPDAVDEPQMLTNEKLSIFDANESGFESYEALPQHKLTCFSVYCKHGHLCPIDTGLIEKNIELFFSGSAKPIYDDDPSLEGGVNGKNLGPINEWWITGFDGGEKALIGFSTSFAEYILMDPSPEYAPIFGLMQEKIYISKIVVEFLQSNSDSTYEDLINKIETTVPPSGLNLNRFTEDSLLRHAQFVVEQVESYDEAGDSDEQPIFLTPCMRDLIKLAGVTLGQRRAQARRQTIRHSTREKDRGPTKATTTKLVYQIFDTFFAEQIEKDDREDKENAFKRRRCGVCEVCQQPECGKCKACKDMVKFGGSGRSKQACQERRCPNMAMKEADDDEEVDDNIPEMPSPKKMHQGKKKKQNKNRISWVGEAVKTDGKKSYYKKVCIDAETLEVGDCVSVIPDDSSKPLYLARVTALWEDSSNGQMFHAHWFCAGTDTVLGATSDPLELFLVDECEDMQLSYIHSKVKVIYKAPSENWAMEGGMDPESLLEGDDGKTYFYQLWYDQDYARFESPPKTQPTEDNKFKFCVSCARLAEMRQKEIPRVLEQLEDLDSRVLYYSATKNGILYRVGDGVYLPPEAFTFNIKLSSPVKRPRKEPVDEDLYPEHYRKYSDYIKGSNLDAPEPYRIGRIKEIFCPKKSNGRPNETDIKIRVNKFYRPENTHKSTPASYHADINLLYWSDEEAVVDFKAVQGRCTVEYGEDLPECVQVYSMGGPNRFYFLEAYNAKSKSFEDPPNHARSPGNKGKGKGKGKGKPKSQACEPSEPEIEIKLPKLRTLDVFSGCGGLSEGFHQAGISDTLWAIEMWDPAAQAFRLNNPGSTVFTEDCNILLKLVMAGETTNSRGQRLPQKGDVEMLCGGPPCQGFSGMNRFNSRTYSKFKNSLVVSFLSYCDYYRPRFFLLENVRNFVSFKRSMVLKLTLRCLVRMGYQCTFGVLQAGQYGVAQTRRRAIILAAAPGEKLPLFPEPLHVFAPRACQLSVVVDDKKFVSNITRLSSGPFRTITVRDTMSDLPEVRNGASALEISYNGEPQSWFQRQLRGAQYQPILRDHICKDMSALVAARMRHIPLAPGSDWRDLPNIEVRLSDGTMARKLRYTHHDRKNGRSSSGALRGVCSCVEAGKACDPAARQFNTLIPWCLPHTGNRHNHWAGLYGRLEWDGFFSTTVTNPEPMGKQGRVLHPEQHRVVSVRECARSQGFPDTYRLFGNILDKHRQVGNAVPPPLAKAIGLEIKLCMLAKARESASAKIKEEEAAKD

Turning to `O=C(CCc1cn(-c2ccccc2)nc1-c1ccccc1)Oc1c(F)c(F)c(F)c(F)c1F` [fragment 19, Pentafluorophenyl 3-(1,3-diphenyl-1H-pyrazol-4-yl)propanoate], the “R value (DMSO/fragment) for probe 1 labeling” value (shortened to “R value (DMSO/fragment)”) in assay [1] amounted to 20.0; in assay [2] it was 0.9.
Consider `O=C(Oc1c(F)c(F)c(F)c(F)c1F)C(c1ccccc1)c1ccccc1` [fragment 20, Pentafluorophenyl 2,2-diphenylacetate], for which the “R value (DMSO/fragment)” value in assay [3] is 7.3; in assay [1], 1.0; in assay [4], 1.8; in assay [2] it was 0.8; in assay [5], 0.9.
Take `O=C(Oc1c(F)c(F)c(F)c(F)c1F)c1cc(C(F)(F)F)cc(C(F)(F)F)c1` [fragment 21, Pentafluorophenyl 3,5-bis(trifluoromethyl)benzoate]: the “R value (DMSO/fragment)” value in assay [3] was found to be 1.4; in assay [1], 1.2; in assay [6] (P05141_K23) it was 1.7; in assay [4], 3.9; in assay [2], 0.8; in assay [5], 1.0.
As to `Cn1cc(CC(=O)Oc2c(F)c(F)c(F)c(F)c2F)c2ccccc21` [fragment 22, Pentafluorophenyl 2-(1-methyl-1H-indol-3-yl)acetate], the “R value (DMSO/fragment)” value is listed as 0.9 in assay [3] and 1.5 in assay [5].
Consider `COc1cc(CCC(=O)Oc2c(F)c(F)c(F)c(F)c2F)cc(OC)c1OC` [fragment 23, Pentafluorophenyl 3-(3,4,5-trimethoxyphenyl)propanoate], for which, in assay [1], the “R value (DMSO/fragment)” value was 1.5.
For `O=C(Oc1c(F)c(F)c(F)c(F)c1F)C1CCN(C(=O)OCc2ccccc2)CC1` [fragment 24, 1-Benzyl 4-(pentafluorophenyl) piperidine-1,4-dicarboxylate], the “isoTOP-ABPP reactivity ratio at lysine Q5TFE4_K123” value in assay [1] stood at 1.1. For the same compound, the “isoTOP-ABPP reactivity ratio at lysine Q15041_K188” value in assay [4] worked out at 2.4.
On to `CCn1cc(C(=O)Oc2c(F)c(F)c(F)c(F)c2F)c(=O)c2ccc(C)nc21` [fragment 28, Pentafluorophenyl 1-ethyl-7-methyl-4-oxo-1,4-dihydro-1,8-naphthyridine-3-carboxylate], for which the “isoTOP-ABPP reactivity ratio at lysine Q5TFE4_K123” value in assay [1] turned out to be 1.2. Further, the “isoTOP-ABPP reactivity ratio at lysine P05141_K23” value in assay [6] worked out at 1.0. For the same compound, in assay [2], the “isoTOP-ABPP reactivity ratio at lysine Q9BRQ3_K60” value worked out at 1.0.
`O=C(CCc1cn(-c2ccccc2)nc1-c1ccccc1)Oc1ccc([N+](=O)[O-])cc1[N+](=O)[O-]` [fragment 29, 2,4-Dinitrophenyl 3-(1,3-diphenyl-1H-pyrazol-4-yl)propanoate]: the “isoTOP-ABPP reactivity ratio at lysine P26358_K45” value in assay [3] is recorded as 0.9. Besides, in assay [1], the “isoTOP-ABPP reactivity ratio at lysine Q5TFE4_K123” value is recorded as 1.2. The “isoTOP-ABPP reactivity ratio at lysine P05141_K23” value in assay [6] was determined as 1.5. The “isoTOP-ABPP reactivity ratio at lysine Q9BRQ3_K60” value in assay [2] stood at 0.8. Besides, in assay [5], the “isoTOP-ABPP reactivity ratio at lysine P24941_K33” value turned out to be 0.9.
Consider `Cn1cc(CC(=O)Oc2ccc([N+](=O)[O-])cc2[N+](=O)[O-])c2ccccc21` [fragment 32, 2,4-Dinitrophenyl 2-(1-methyl-1H-indol-3-yl)acetate], for which the “isoTOP-ABPP reactivity ratio at lysine P26358_K45” value in assay [3] stood at 1.0. Besides, in assay [6], the “isoTOP-ABPP reactivity ratio at lysine P05141_K23” value is recorded as 1.8. Also, the “isoTOP-ABPP reactivity ratio at lysine Q15041_K188” value in assay [4] is 5.9. The “isoTOP-ABPP reactivity ratio at lysine Q9BRQ3_K60” value in assay [2] was 20.0.

(Values after patent US20210255193A1, “LYSINE REACTIVE PROBES AND USES THEREOF” (The Scripps Research Institute, priority 2017, published 2021).)
